Reference: PMC11788822, “Uncovering the potent antimicrobial activity of squaramide based anionophores – chloride transport and membrane disruption” (Chemical Science, 2025)

Experiments:
S. aureus [1] = assay: Growth inhibition assay, S. aureus; type: cell-based, Staphylococcus aureus; settings: Staphylococcus aureus, 24 h, growth (OD 600 nm) relative to control, 37 °C
Experimental: To determine IC50/80 values, growth (optical density) of S. aureus, methicillin-resistant S. aureus (MRSA), P. aeruginosa, and K. pneumoniae when treated with a range of concentrations of each active compound in vitro was measured at 600 nm after a 24 h incubation period at 37 °C. Each compound was studied for activity below […], and those showing little activity above 200 μM, were noted as such, and omitted from further study.
Staphylococcus aureus culture conditions
S. aureus (ATCC33951) was cultured at 37 °C in Nutrient broth (Oxoid), in an orbital shaker at 200 rpm. Stocks were kept on nutrient agar, stored at 4 °C for up to 2 months, or as glycerol stocks (50/50 glycerol:culture), stored at -70 °C indefinitely. […]
Bacterial cultures were brought to early stationary phase overnight, in nutrient broth (containing 25/50 µg/mL Ampicillin for MRSA/K. pneumoniae, respectively) at 37 °C. Cultures were diluted to an OD600 = 0.01. Aliquots of Culture (100 µl) were added to 100 µL serially diluted compound (200 – 0.78 µM) in nutrient broth in a 96-well plate (Sarstedt, Germany).
Plates were incubated at 37 °C for 24 h and growth was measured at 600 nm, where growth was measured and represented relative to control. […]

S. aureus [2] = assay: DNA release luminescence assay with Ru(phen)2(dppz)Cl2; type: cell-based, Staphylococcus aureus; settings: 100 μM, 1 h, vs untreated control
Experimental: In addition to assays monitoring the uptake of PI, luminescence assays to monitor the release of cellular components such as DNA/RNA were also undertaken. Using Ru(phen)2(dppz)Cl2, which acts as a highly sensitive, “off-to-on” emissive probe for nucleic acids (NA),[49–51] we assessed the levels of NA release from cells upon treatment with 1, 2, and 4 (100 μM) by comparing emission intensity of the complex in the absence of nucleic acids, to untreated controls, and treated samples (Fig. 4C). When Ru(phen)2(dppz)Cl2 was added to sterile nutrient broth, which lacks nucleic acids, emission from the ^3MLCT band (ca. 620 nm) is highly quenched, however, when added to culture supernatant in the absence of treatment with 1, 2, or 4 we see a large increase in ^3MLCT derived luminescence indicating the presence of nucleic acids in the solution. This initial luminescence increase is unsurprising, as S. aureus is known to release DNA under active growth conditions, in the form of eDNA,[52] which acts as a chemical messenger for microbial species.[53] […] This additional increase in luminescence indicates a heightened level of extracellular NA and may be another indication of membrane disruption. […] Indeed, a significant increase in luminescence would not be expected, as the release of large architectures such as those observed for nucleic acids is slow, due to the bulk of the biomolecules.
(§1) 1 mL aliquots of S. aureus cultures brought to early stationary phase overnight were brought to an OD600 = 0.2 and 100 µL of this suspension was added to 96 well plates, whereafter 100 µL of PBS containing; no compound (- control), or compound (2x desired concentration) was added to the suspension. The resultant mixture was incubated at 37 °C for 2 hr whereafter fluorescence intensity from PI (DNA bound form) was quanitified (λ exc/em = 535/615 nm) using a Clariostar plate reader. In the case of time course experiments, Measurement cycles were set for two hours, following addition of the respective compound (T0). Fluorescence was subsequently plotted as F/F0.
DNA release luminescence assay […]

S. aureus cells = assay: Propidium iodide membrane integrity assay; type: cell-based, Staphylococcus aureus; settings: for propidium iodide fluorescence vs basal (emission around 615 nm): two hours of treatment, various concentrations
Excerpt: To study whether compounds 1, 2, and 4 do indeed accumulate in the membrane, and yield a depolarising effect, or compromise its integrity we utilised propidium iodide (PI), a red-emissive (λmax(em) = 617 nm) cell-impermeable fluorophore. PI undergoes a fluorescence increase upon internalisation and DNA intercalation, and thus under ordinary circumstances PI fluorescence is quenched, but if membrane integrity is compromised, a fluorescence “turn-on” occurs. After two hours of treatment with 1, 2, and 4, PI fluorescence was compared to basal fluorescence from the fluorophore. […] This clear membrane depolarising effect was less obvious for 4, and follows the trend of the observed transport, and toxicity results. However, it is of note that each compound can effectively promote an influx of PI through membrane depolarisation.
To further investigate the rate of this phenomenon, PI fluorescence was monitored as a function of time, upon treatment of S. aureus with 1 at a concentration of 50 μM (Fig. 4B).
as §1, with “F/F0. […]” for “F/F0.”
Statistical analysis of biological data: All biological experiments were carried out in triplicate, making use of cells of differing origins, on three independent occasions. With experiments concerning the use of 96-well plates, all experiments were carried out as three biological replicates of eight technical replicates. All data is presented as the mean + SEM of each replicate, unless specified otherwise. All statistical analysis and significance determination was carried out using the Graphpad Prism 8.0.1 software package.

[3] = test system: panel of Gram-positive and -negative pathogens; assay: Zone of inhibition assay; type: cell-based; settings: 5 μL of 1 mM stock on nutrient agar, 37 °C, 24 h; radius ≤ 2 mm deemed not active
Experimental: To do this, a zone of inhibition assay was used as a qualitative measure of activity. To do so, 5 μL of a 1 mM stock of the respective compound was pipetted atop nutrient agar which was previously spread with a panel of Gram-positive and -negative pathogens of interest. Following incubation at 37 °C for 24 h, zones of inhibition were measured and recorded for each compound. Zones with a radius ≤ 2 mm were deemed as not active, and thus eliminated from further study.

SMILES | IC80 (S. aureus [1]) | IC50 (S. aureus [1]) | Ru(phen)2(dppz)Cl2 luminescence in culture supernatant (nucleic acid release) (S. aureus [2]) | propidium iodide fluorescence as a function of time (S. aureus cells; 50 μM, over two hours) | propidium iodide fluorescence vs basal (emission around 615 nm) (S. aureus cells) | zone of inhibition, qualitative measure of activity [3]
O=c1c(Nc2cc(C(F)(F)F)cc(C(F)(F)F)c2)c(NC23CC4CC(CC(C4)C2)C3)c1=O [Compound 1] | ~200 µM | 0.781 µM | further increased | increase in the fluorescence of PI | greatly increased | promising bioactivity
O=c1c(Nc2ccc(Cl)c(Cl)c2)c(NC23CC4CC(CC(C4)C2)C3)c1=O [Compound 2] | 250 µM | 62.5 µM | further increased |  | greatly increased | promising bioactivity
O=c1c(Nc2ccc([N+](=O)[O-])cc2)c(NC23CC4CC(CC(C4)C2)C3)c1=O [Compound 4] |  | 170 µM | further increased |  | less obvious | promising bioactivity
